Laboratory results as given in patent publication US20100029682A1, “NOVEL CHROMENE AND THIOCHROMENE CARBOXAMIDE DERIVATIVES, METHODS FOR PREPARING SAME AND THERAPEUTIC APPLICATIONS OF SAME” (priority 2006, published 2010).
Counter-ions that a name gives are not always drawn.

SMILES	melting point
O=C(NCCCCN1CCN(c2ccccc2F)CC1)C1=Cc2ccccc2OC1 (as salt: HCl) [Example 3, 2-H-Chromene-3-carboxylic acid {4-[4-(2-fluorophenyl)-piperazin-1-yl]-butyl}-amide]	231 °C
O=C(NCCCCN1CCN(c2ccccc2)CC1)C1=Cc2ccccc2OC1 (as salt: HCl) [Example 4, 2H-Chromene-3-carboxylic acid {4-(4-phenylpiperazin-1-yl)-butyl}-amide]	239 °C
O=C(NCCCCN1CCN(c2cccc(Cl)c2)CC1)C1=Cc2ccccc2OC1 (as salt: HCl) [Example 6, 2H-Chromene-3-carboxylic acid {4-[4-(3 chlorophenyl)-piperazin-1-yl]-butyl}-amide]	216 °C
O=C(NCCCCN1CCN(c2ccccc2Cl)CC1)C1=Cc2ccccc2OC1 (as salt: HCl) [Example 7, 2H-Chromene-3 carboxylic acid {4-[4-(2-chlorophenyl)-piperazin-1-yl]-butyl}-amide]	201 °C
O=C(NCCCCN1CCN(c2ccc(F)cc2)CC1)C1=Cc2ccccc2OC1 (as salt: HCl) [Example 8, 2H Chromene-3-carboxylic acid {4-[4-(4 fluorophenyl)-piperazin-1-yl]-butyl}-amide]	243 °C
Cc1ccccc1N1CCN(CCCCNC(=O)C2=Cc3ccccc3OC2)CC1 (as salt: HCl) [Example 9, 2H Chromene-3-carboxylic acid {4-[4-(2-methylphenyl)-piperazin-1-yl]-butyl}-amide]	187 °C
Cc1ccc(N2CCN(CCCCNC(=O)C3=Cc4ccccc4OC3)CC2)c(C)c1 (as salt: HCl) [Example 10, 2H-Chromene-3-carboxylic acid {4-[4-(2,4-dimethylphenyl)-piperazin-1-yl]-butyl}-amide]	207 °C
Cc1cccc(N2CCN(CCCCNC(=O)C3=Cc4ccccc4OC3)CC2)c1C (as salt: HCl) [Example 11, 2H-Chromene-3-carboxylic acid {4-[4-(2,3-dimethylphenyl)piperazin-1-yl]-butyl}-amide]	202 °C
N#Cc1ccc(N2CCN(CCCCNC(=O)C3=Cc4ccccc4OC3)CC2)cc1 (as salt: HCl) [Example 13, 2H-Chromene-3-carboxylic acid {4-[4-(4-cyanophenyl)piperazin 1-yl]-butyl}-amide]	212 °C
O=C(NCCCCN1CCN(c2ccc(C(F)(F)F)cc2)CC1)C1=Cc2ccccc2OC1 (as salt: HCl) [Example 15, 2-H-Chromene-3-carboxylic acid {4-[4-(4-trifluoromethylphenyl)-piperazin-1-yl]-butyl}-amide]	261.9 °C
O=C(NCCCCN1CCN(c2ccc([N+](=O)[O-])cc2)CC1)C1=Cc2ccccc2OC1 (as salt: HCl) [Example 18, 2H-Chromene 3 carboxylic acid {4-[4-(4-nitrophenyl)-piperazin-1-yl]-butyl}-amide]	243 °C
COc1ccccc1N1CCN(CCCCNC(=O)C2=Cc3cc(Cl)ccc3OC2)CC1 (as salt: HCl) [Example 29, 6-Chloro-2H-chromene-3-carboxylic acid {4-[4-(2-methoxyphenyl)-piperazin-1-yl]-butyl}-amide]	155 °C
O=C(NCCCCN1CCN(c2ccccc2F)CC1)C1=Cc2cc(Cl)ccc2OC1 (as salt: HCl) [Example 30, 6-Chloro-2H-chromene-3-carboxylic acid {4-[4-(2-fluorophenyl)-piperazin-1-yl]-butyl}-amide]	214 °C
O=C(NCCCCN1CCN(c2cccc(Cl)c2Cl)CC1)C1=Cc2ccccc2SC1 (as salt: HCl) [Example 32, 2H-thiochromene-3-carboxylic acid {4-[4-(2,3-dichlorophenyl)piperazin-1-yl]-butyl}-amide]	215 °C
O=C(NCCCCN1CCN(c2ccccc2F)CC1)C1=Cc2ccccc2SC1 (as salt: HCl) [Example 33, 2H-Thiochromene-3-carboxylic acid {4-[4-(2-fluorophenyl)piperazin-1-yl]-butyl}-amide]	212 °C
COc1ccccc1N1CCN(CCCCNC(=O)C2=Cc3ccccc3SC2)CC1 (as salt: HCl) [Example 34, 2H-Thiochromene-3-carboxylic acid {4-[4-(2-methoxyphenyl)piperazin-1-yl]-butyl}-amide]	208 °C
CC1(C)Sc2ccccc2C=C1C(=O)NCCCCN1CCN(c2cccc(C#N)c2)CC1 (as salt: HCl) [Example 44, 2,2-Dimethyl-2H thiochromene-3-carboxylic acid {4-[4-(3-cyanophenyl)-piperazin-1-yl]-butyl}-amide]	155 °C
COc1ccc(Br)c2c1OCC(C(=O)NCCCCN1CCN(c3cccc(Cl)c3Cl)CC1)=C2 (as salt: HCl) [Example 51, 5-Bromo 8 methoxy-2H-chromene-3-carboxylic acid {4-[4-(2,3-dichlorophenyl)-piperazin-1-yl]-butyl}-amide]	205 °C
O=C(NCCCCN1CCN(c2cccc(O)c2)CC1)C1=Cc2ccccc2OC1 (as salt: HCl) [Example 53, 2H Chromene-3-carboxylic acid {4-[4-(3-hydroxyphenyl)-piperazin-1-yl]-butyl}-amide]	199 °C
COc1ccc2c(c1)C=C(C(=O)NCCCCN1CCN(c3ccccc3OC)CC1)CO2 (as salt: HCl) [Example 54, 6-Methoxy-2H-chromene-3-carboxylic acid {4-[4-(2-methoxyphenyl)piperazin-1-yl]-butyl}-amide]	165 °C
COc1ccc2c(c1)C=C(C(=O)NCCCCN1CCN(c3cccc(Cl)c3Cl)CC1)CO2 (as salt: HCl) [Example 55, 6-Methoxy-2H-chromene-3-carboxylic acid {4-[4-(2,3-dichlorophenyl)-piperazin-1-yl]-butyl}-amide]	205 °C
COc1ccc2c(c1)C=C(C(=O)NCCCCN1CCN(c3cccc(C#N)c3)CC1)CO2 (as salt: HCl) [Example 57, 6-Methoxy-2H-chromene-3-carboxylic acid {4-[4-(3-cyanophenyl)-piperazin-1-yl]-butyl}-amide]	159 °C
O=C(NCCCCN1CCN(c2ccccc2O)CC1)C1=Cc2ccccc2OC1 (as salt: HCl) [Example 58, 2H-Chromene-3-carboxylic acid {4-[4-(2-hydroxyphenyl)-piperazin-1-yl]-butyl}-amide]	189 °C
COc1ccccc1N1CCN(CCCCNC(=O)C2=Cc3ccccc3OC2)CC1 (as salt: hydrochloride) [Example 1, 2H-Chromene 3-carboxylic acid {4-[4-(2-methoxyphenyl)-piperazin-1-yl]-butyl}-amide]	224 °C

More lines, now with the values ahead:

melting point	SMILES
236 °C	O=C(NCCCCN1CCN(c2ccc(Cl)cc2)CC1)C1=Cc2ccccc2OC1 (as salt: HCl) [Example 5, 2H-Chromene-3-carboxylic acid {4-[4-(4-chlorophenyl)-piperazin-1-yl]-butyl}-amide]
194 °C	N#Cc1ccccc1N1CCN(CCCCNC(=O)C2=Cc3ccccc3OC2)CC1 (as salt: HCl) [Example 12, 2H-Chromene-3-carboxylic acid {4-[4-(2-cyanophenyl)-piperazin-1-yl]-butyl}-amide]
234 °C	O=C(NCCCCN1CCN(c2cccc(C(F)(F)F)c2)CC1)C1=Cc2ccccc2OC1 (as salt: HCl) [Example 16, 2H-Chromene-3-carboxylic acid {4-[4-(3-trifluoromethylphenyl)-piperazin-1-yl]-butyl}-amide]
161 °C	O=C(NCCCCN1CCN(c2ccccc2C(F)(F)F)CC1)C1=Cc2ccccc2OC1 (as salt: HCl) [Example 17, 2H-Chromene-3 carboxylic acid {4-[4-(2-trifluoromethylphenyl)-piperazin-1-yl]-butyl}-amide]
120 °C (dec.)	N#Cc1cccc(N2CCN(CCCCNC(=O)C3=Cc4cc(Cl)ccc4OC3)CC2)c1 (as salt: HCl) [Example 31, 6-Chloro-2H-chromene-3-carboxylic acid {4-[4-(3-cyanophenyl)-piperazin-1-yl]-butyl}-amide]
209 °C	N#Cc1cccc(N2CCN(CCCCNC(=O)C3=Cc4ccccc4SC3)CC2)c1 (as salt: HCl) [Example 35, 2H-Thiochromene-3-carboxylic acid {4-[4-(3-cyanophenyl)-piperazin-1-yl]-butyl}-amide]
182 to 184 °C	O=C(NCCCCN1CCN(c2cccc(O)c2)CC1)C1=Cc2ccccc2SC1 (as salt: HCl) [Example 41, 2H-Thiochromene-3-carboxylic acid {4-[4-(3-hydroxyphenyl)-piperazin-1-yl]-butyl}-amide]
194 °C	O=C(NCCCCN1CCN(c2cccc(CO)c2)CC1)C1=Cc2ccccc2OC1 (as salt: HCl) [Example 46, 2H-chromene-3-carboxylic acid {4-[4-(3-hydroxymethylphenyl)-piperazin-1-yl]-butyl}-amide]
176 °C	COc1ccccc1N1CCN(CCCCNC(=O)C2=Cc3c(Br)ccc(OC)c3OC2)CC1 (as salt: HCl) [Example 50, 5-Bromo-8-methoxy-2H-chromene-3-carboxylic acid {4-[4-(2-methoxyphenyl)piperazin-1-yl]-butyl}-amide]
155 °C	COc1ccc(Br)c2c1OCC(C(=O)NCCCCN1CCN(c3cccc(C#N)c3)CC1)=C2 (as salt: HCl) [Example 52, 5-Bromo-8-methoxy-2H-chromene-3-carboxylic acid {4-[4-(3-cyanophenyl)piperazin-1-yl]-butyl}-amide]
236 °C	O=C(NCCCCN1CCN(c2ccc(O)cc2)CC1)C1=Cc2ccccc2OC1 (as salt: HCl) [Example 59, 2H-Chromene-3-carboxylic acid {4-[4-(4-hydroxyphenyl)-piperazin-1-yl]-butyl}-amide]
201 °C	O=C(NCCCCN1CCN(c2cccc(Cl)c2Cl)CC1)C1=Cc2ccccc2OC1 (as salt: hydrochloride) [Example 2, 2H-Chromene-3-carboxylic acid {4-[4-(2,3-dichlorophenyl)-piperazin-1-yl]-butyl}-amide]
